Drawing on patent US9656990B2, “Cathepsin cysteine protease inhibitors” (Merck Sharp & Dohme Corp., priority 2014, dated 2017), this text covers IC50 for 13 compounds.

Molecules are shown by their SMILES.

In one assay the target is human cathepsin K (UniProt P43236, Y175D/V274L, species not given). The experiment in a line: Cathepsin K Assay. The format is biochemical. The note with it: IP from dose response curve; Z-Leu-Arg-AMC substrate, pH 5.5; read-out: hrbCat K (IP (nM)).
The next assay deals with T1, human cathepsin F (Homo sapiens, UniProt Q9UBX1).
T1 sequence (Q9UBX1 271-484): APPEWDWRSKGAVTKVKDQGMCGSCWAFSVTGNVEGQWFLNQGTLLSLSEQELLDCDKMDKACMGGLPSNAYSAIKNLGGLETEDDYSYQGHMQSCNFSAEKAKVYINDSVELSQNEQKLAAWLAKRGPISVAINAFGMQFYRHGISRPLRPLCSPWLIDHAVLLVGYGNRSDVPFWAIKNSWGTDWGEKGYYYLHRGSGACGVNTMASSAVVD
The experiment in a line: Cathepsin F Assay. The format is biochemical. The note with it: IP from dose response curve; Z-Phe-Arg-AMC substrate, pH 5.5; read-out: hCat F (IP (nM)). In outline: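 Human cathepsin F (10 nM) preincubated 15 min at room temperature with compounds in 50 mM MES pH 5.5, 2.5 mM EDTA, 2.5 mM DTT, 10% DMSO. Z-Phe-Arg-AMC (8 μM) added; AMC release read by fluorescence (Ex 360/Em 460 nm) over 20 min, inhibition fit to dose-response model.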

For the compound `Cc1c(-c2ccc(N3CCS(=O)(=O)CC3)cc2)c([C@@H]2CCCC[C@H]2C(=O)NC2(C#N)CC2)nn1-c1ccc(F)cn1` [Example 157, (1R,2R)-N-(1-cyanocyclopropyl)-2-(4-(4-(1,1-dioxidothiomorpholino)phen-yl)-1-(5-fluoropyridin-2-yl)-5-methyl-1H-pyrazol-3-yl)cyclohexanecarboxamide], the values for the IC50 at human cathepsin K and on human cathepsin F were 4.26 nM and 2980 nM, respectively.

On to `CN=S1(=O)CCN(c2ccc(-c3cn(-c4ccc(F)cn4)nc3[C@@H]3CC[C@H](F)C[C@H]3C(=O)NC3(C#N)CC3)cc2)CC1` [Example 159, (1R,2R,5S)-N-(1-cyanocyclopropyl)-5-fluoro-2-(1-(5-fluoropyridin-2-yl)-4-(4-(1-(methylimino)-1-oxidothiomorpholino)phenyl)-1H-pyrazol-3-yl)cyclohexanecarboxamide], for which the IC50 on human cathepsin K turned out to be 3.22 nM; on human cathepsin F, 1410 nM.

For the compound `N#CC1(NC(=O)[C@@H]2CCCC[C@H]2c2nn(-c3cccnn3)cc2-c2ccc(N3CCS(=O)(=O)CC3)cc2)CC1` [Example 161, (1R,2R)-N-(1-cyanocyclopropyl)-2-(4-(4-(1,1-dioxidothiomorpholino)phen-yl)-1-(pyridazin-3-yl)-1H-pyrazol-3-yl)cyclohexanecarboxamide], the results for the IC50 at human cathepsin K and on human cathepsin F were 1.61 nM and 751 nM, respectively.

On to `COc1ccc(-n2cc(-c3ccc(N4CCS(=O)(=O)CC4)cc3)c([C@@H]3CCCC[C@H]3C(=O)NC3(C#N)CC3)n2)nn1` [Example 162, (1R,2R)-N-(1-cyanocyclopropyl)-2-(4-(4-(1,1-dioxidothiomorpholino)phen-yl)-1-(6-methoxypyridazin-3-yl)-1H-pyrazol-3-yl)cyclohexanecarboxamide], for which the values for the IC50 at human cathepsin K and on human cathepsin F were 0.84 nM and 654 nM, respectively.

With `N#CC1(NC(=O)[C@@H]2CCCC[C@H]2c2nn(-c3ccncc3)cc2-c2ccc(N3CCS(=O)(=O)CC3)cc2)CC1` [Example 163, (1R,2R)-N-(1-cyanocyclopropyl)-2-(4-(4-(1,1-dioxidothiomorpholino)phen-yl)-1-(pyridin-4-yl)-1H-pyrazol-3-yl)cyclohexanecarboxamide], the IC50 on human cathepsin K was 0.32 nM; at human cathepsin F, 237 nM.

Regarding `N#CC1(NC(=O)[C@@H]2CCCC[C@H]2c2nn(-c3cccnc3)cc2-c2ccc(N3CCS(=O)(=O)CC3)cc2)CC1` [Example 164, (1R,2R)-N-(1-cyanocyclopropyl)-2-(4-(4-(1,1-dioxidothiomorpholino)phen-yl)-1-(pyridin-3-yl)-1H-pyrazol-3-yl)cyclohexanecarboxamide], the IC50 on human cathepsin K worked out at 0.48 nM; on human cathepsin F, 697 nM.

For `N#CC1(NC(=O)[C@@H]2CCCC[C@H]2c2nn(-c3cncc(F)c3)cc2-c2ccc(N3CCS(=O)(=O)CC3)cc2)CC1` [Example 165, (1R,2R)-N-(1-cyanocyclopropyl)-2-(4-(4-(1,1-dioxidothiomorpholino)phen-yl)-1-(5-fluoropyridin-3-yl)-1H-pyrazol-3-yl)cyclohexanecarboxamide], the results for the IC50 on human cathepsin K and at human cathepsin F were 0.9 nM and 319 nM, respectively.

Take `N#CC1(NC(=O)[C@@H]2CCCC[C@H]2c2nn(-c3ccc(C(F)(F)F)nc3)cc2-c2ccc(N3CCS(=O)(=O)CC3)cc2)CC1` [Example 166, (1R,2R)-N-(1-cyanocyclopropyl)-2-(4-(4-(1,1-dioxidothiomorpholino)phen-yl)-1-(6-(trifluoromethyl)pyridin-3-yl)-1H-pyrazol-3-yl)cyclohexanecarboxamide]: the IC50 was 1.31 nM on human cathepsin K and 428 nM at human cathepsin F.

Regarding `Cc1ccc(-n2cc(-c3ccc(N4CCS(=O)(=O)CC4)cc3)c([C@@H]3CCCC[C@H]3C(=O)NC3(C#N)CC3)n2)cn1` [Example 167, (1R,2R)-N-(1-cyanocyclopropyl)-2-(4-(4-(1,1-dioxidothiomorpholino)phen-yl)-1-(6-methylpyridin-3-yl)-1H-pyrazol-3-yl)cyclohexanecarboxamide], the IC50 on human cathepsin K is 0.66 nM; on human cathepsin F it was 602 nM.

For `COc1ccc(-n2cc(-c3ccc(N4CCS(=O)(=O)CC4)cc3)c([C@@H]3CCCC[C@H]3C(=O)NC3(C#N)CC3)n2)cn1` [Example 168, (1R,2R)-N-(1-cyanocyclopropyl)-2-(4-(4-(1,1-dioxidothiomorpholino)phen-yl)-1-(6-methoxypyridin-3-yl)-1H-pyrazol-3-yl)cyclohexanecarboxamide], the IC50 on human cathepsin K was 2.4 nM; at human cathepsin F, 763 nM.

As for `N#CC1(NC(=O)[C@@H]2CCCC[C@H]2c2nn(-c3cc(F)cnc3F)cc2-c2ccc(N3CCS(=O)(=O)CC3)cc2)CC1` [Example 169, (1R,2R)-N-(1-cyanocyclopropyl)-2-(1-(2,5-difluoropyridin-3-yl)-4-(4-(1,1-dioxidothiomorpholino)phen-yl)-1H-pyrazol-3-yl)cyclohexanecarboxamide], the IC50 came out at 3.94 nM on human cathepsin K and 5670 nM on human cathepsin F.

Turning to `N#CC1(NC(=O)[C@@H]2CCCC[C@H]2c2nn(-c3cnc(O)nc3)cc2-c2ccc(N3CCS(=O)(=O)CC3)cc2)CC1` [Example 170, (1R,2R)-N-(1-cyanocyclopropyl)-2-(4-(4-(1,1-dioxidothiomorpholino)phen-yl)-1-(2-hydroxypyrimidin-5-yl)-1H-pyrazol-3-yl)cyclohexanecarboxamide], the IC50 on human cathepsin K turned out to be 1.88 nM; at human cathepsin F, 2530 nM.

Turning to `Cn1cc(-n2cc(-c3ccc(N4CCS(=O)(=O)CC4)cc3)c([C@@H]3CCCC[C@H]3C(=O)NC3(C#N)CC3)n2)cn1` [Example 171, (1R,2R)-N-(1-cyanocyclopropyl)-2-(4-(4-(1,1-dioxidothiomorpholino)phen-yl)-1′-methyl-1′H-[1,4′-bipyrazol]-3-yl)cyclohexanecarboxamide], the figures for the IC50 at human cathepsin K and at human cathepsin F were 3.38 nM and 2760 nM, respectively.
